Measured values as given in PubChem BioAssay AID1996.
Values after ≈ are worked out from the molar mass of the structure shown.

conditions: buffer; pH 7.4; 200.0 µM

SMILES | solubility kinetic [µg/mL]
COc1ccc(CCn2c(C)cc(C(=O)COC(=O)c3cnccn3)c2C)cc1 | 37.3 (≈ 94.8 µM)
COC(=O)c1cc(S(=O)(=O)N(C)C2CCCCC2)oc1C | 37.5 (≈ 119 µM)
Oc1ccc(N2CCN(CC(O)c3ccccc3)CC2)cc1 (centres undefined) | > 44.8
O=C(CC1CC2CCC1C2)NCCc1ccc(Cl)cc1 (centres undefined) | 29.7 (≈ 102 µM)
Cn1cccc1C(=O)NC1CCCCCC1 | > 33
CCOC(=O)C(Cc1ccccc1)C(=O)NCc1cccnc1 (centres undefined) | > 46.9
Cc1cc(S(=O)(=O)NCc2ccc3c(c2)OCO3)ccc1F | 46.8 (≈ 145 µM)
CS(=O)(=O)Nc1cccc(-c2cnc3ccccc3n2)c1 | > 44.9
CC1=C(C(=O)N(C)C)C(c2ccc(N3CCOCC3)cc2)NC(=O)N1 (centres undefined) | 49.8 (≈ 145 µM)
CCSc1nc2ccccc2c(=O)n1Cc1ccc(F)cc1 | < 0.3
CCn1c(SCc2ccccc2)nc2c(c1=O)SCC2 | 13.5 (≈ 44.3 µM)
CCc1cccc2c(C(=O)COC(=O)[C@@H]3CC(O)CN3S(=O)(=O)c3ccccc3[N+](=O)[O-])c[nH]c12 (some centres undefined) | 30.6 (≈ 61 µM)
NC(=O)C1(c2ccccc2)CCC(=O)N1c1ccccc1 (centres undefined) | > 42
CCCCOCCCNC(=O)N[C@H](C(=O)OC)C(C)CC (some centres undefined) | > 45.4
CCCOc1ccc(S(=O)(=O)Nc2ccccn2)c2ccccc12 | < 0.4
COc1ccccc1NC(=O)CN1C(=O)COc2ccc(C)cc21 | 16.2 (≈ 49.6 µM)
Cn1c(=O)c2c([nH]c(=O)n2C)n(Cc2ccccc2)c1=O | > 42.9
Nc1ccccc1NC(=O)NC(=O)c1ccccc1 | 6.1 (≈ 23.9 µM)
COc1ccc(NC(=O)c2cccs2)cn1 | > 35.1
O=CN1CCN(C(=O)c2cccc([N+](=O)[O-])c2)CC1 | > 39.5

SMILES | solubility kinetic [µg/mL]
O=C(O)CC1(CC(=O)Nc2ccc3c(c2)C(=O)OC3)CCCCC1 | > 49.7
COc1ccc(-c2noc(CN(Cc3nccn3C)C(C)C)n2)cc1 | 45.6 (≈ 134 µM)
COc1cccc(C(=O)NCC2(c3ccccc3)CCCC2)c1 | 28.4 (≈ 91.8 µM)
Cc1ccccc1OCc1nc(C#N)c(N2CCCC2)o1 | 10.9 (≈ 38.5 µM)
Cc1c(NS(=O)(=O)c2cc(C(=O)N(C)Cc3ccccc3)ccc2Cl)c(=O)n(-c2ccccc2)n1C | > 78.8
CCOCCCNC(=O)c1ccc(NC(=O)C2CCCO2)cc1 (centres undefined) | > 48.1
Cc1cc(C(=O)NCCc2ccc(Cl)cc2)no1 | 18.6 (≈ 70.3 µM)
Cc1c(C(C)(C)C)s/c(=N/S(=O)(=O)c2ccccc2)n1C | 43.7 (≈ 135 µM)
CN(CCOc1ccc(CC2SC(=O)NC2=O)cc1)c1ccccn1.O=C(O)/C=C\C(=O)O (centres undefined) | 68.2
O=c1cc(NCc2ccccc2)[nH]c(=O)[nH]1 | > 32.6
Cc1cccc(N2CCN(C(=O)c3cccs3)CC2)c1C | 23.8 (≈ 79.2 µM)
COc1ccc(Cl)cc1NC(=O)CN(C)C(=O)c1cccc2cccnc12 | 48.5 (≈ 126 µM)
CCOC(=O)N1CCN(CCC(=O)c2ccc(Cl)cc2)CC1.Cl | > 48.7
Cc1ccc([N+](=O)[O-])c(OCCN2C(=O)NC(C)(C)C2=O)c1 | > 46.1
O=S(=O)([O-])CCC[N+]1(CC#Cc2ccccc2)CCCCC1 | > 48.2
Cc1ccc(CN(C)C(=O)c2cccc(S(=O)(=O)N3CCc4ccccc43)c2)cc1 | 5.8 (≈ 13.8 µM)
CN1C(=O)c2ccc(C(=O)NCc3ccccn3)cc2C1=O | > 44.3
C[C@@H](C(=O)Nc1nc2ccccc2s1)N1C(=O)C2CC=CCC2C1=O (some centres undefined) | 45.2 (≈ 127 µM)
C=CCn1cnnc1SCC(=O)N(C1CCCCC1)C1CCS(=O)(=O)C1 (centres undefined) | > 59.8
N#CC(C(=O)c1ccccc1Cl)=C1SCCCS1 | 9.4 (≈ 31.8 µM)

SMILES | solubility kinetic [µg/mL]
Cc1ccc(S(=O)(=O)NC(C)C(=O)NC(C)c2cccs2)cc1 (centres undefined) | 51.6 (≈ 146 µM)
C=CCC(C(=O)OC)(C(=O)OC)c1ccccc1[N+](=O)[O-] | > 44
COc1cc(C(=O)NCC(=O)OCc2ccc(F)cc2)cc(OC)c1OC | 11.8 (≈ 31.3 µM)
Cc1ccc(NC(=O)CSc2nccn2C)cc1F | > 41.9
C=CCSc1ncnc2c1oc1nc3c(cc12)COC(C)(C)C3 | 1.3 (≈ 3.97 µM)
Cc1cc(/C=C2/C(=O)NC(=O)N(C)C2=O)c(C)n1-c1ccccc1 | 1.1 (≈ 3.4 µM)
COc1ccc(OC)c(NC(=O)CCCSc2ccccc2)c1 | 13.7 (≈ 41.3 µM)
COc1ccc(Nc2nc(C)nc3c2oc2ccccc23)cc1 | 1.7 (≈ 5.57 µM)
CCOc1cc(/C=C2\NC(=O)NC2=O)cc([N+](=O)[O-])c1O | > 44
CCC(=O)Nc1cc(C(=O)O)ccc1Sc1ccc(Cl)cc1 | > 50.4
CNC(=O)c1c(NC(=O)c2ccco2)sc(C)c1C | 11.6 (≈ 41.7 µM)
CCCN(CC(=O)Nc1ccccc1C)C(=O)c1cc(C)oc1C | > 49.3
Cn1c2ccccc2c2nnc(SCCN3CCOCC3)nc21 | > 49.4
COc1ccccc1NC(=O)c1cc(C)oc1C | > 36.8
CCOC(=O)c1csc(NC(=O)CN2CCOCC2)n1 | > 44.9
CCn1c2ccccc2c2cc(CC(N)=O)ccc21 | 8 (≈ 31.7 µM)
C=CCNC(=O)COc1ccc(Oc2ccccc2)cc1 | > 42.5
O=C(COC(=O)c1ccc(F)cc1)Nc1ccc2c(c1)OCO2 | 4.5 (≈ 14.2 µM)
NC(=O)c1oc2ccccc2c1NC(=O)C1COc2ccccc2O1 (centres undefined) | < 0.4
